These are literature values, as cited in patent US20140329781A1, “METHODS FOR TREATING CARDIOVASCULAR DISORDER” (WOCKHARDT LIMITED, priority 2011, published 2014).

Structures are written as SMILES.

For series [1] the following is noted: water.
The target in another series is albumin (Homo sapiens, UniProt P02768).
Sequence of albumin (P02768 25-609, species assumed): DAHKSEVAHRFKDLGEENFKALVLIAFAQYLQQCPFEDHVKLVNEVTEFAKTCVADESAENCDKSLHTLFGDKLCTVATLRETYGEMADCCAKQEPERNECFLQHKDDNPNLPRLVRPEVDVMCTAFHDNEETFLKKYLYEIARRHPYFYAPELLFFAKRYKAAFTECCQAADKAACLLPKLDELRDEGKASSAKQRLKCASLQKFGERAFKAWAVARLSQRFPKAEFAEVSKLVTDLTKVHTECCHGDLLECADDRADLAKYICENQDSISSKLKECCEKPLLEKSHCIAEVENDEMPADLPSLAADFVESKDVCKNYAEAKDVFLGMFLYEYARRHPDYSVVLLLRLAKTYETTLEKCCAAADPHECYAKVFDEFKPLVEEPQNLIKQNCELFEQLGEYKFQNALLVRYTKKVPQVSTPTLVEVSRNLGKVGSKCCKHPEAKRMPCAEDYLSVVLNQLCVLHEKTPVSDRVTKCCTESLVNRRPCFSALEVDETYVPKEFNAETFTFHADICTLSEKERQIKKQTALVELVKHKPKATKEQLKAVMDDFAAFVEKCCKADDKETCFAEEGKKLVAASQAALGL

In the case of `COCCc1ccc(OCC(O)CNC(C)C)cc1` (centres unmarked) [Metoprolol], where the note is “incomplete due to extensive first pass metabolism”, the bioavailability result is “about 50%”. In series [1], the “solubility (in words)” value is recorded as “highly soluble”.

On to `COC(=O)[C@H](c1ccccc1Cl)N1CCc2sccc2C1` [Clopidogrel], for which the “bioavailability (in words)” value (extensive first pass metabolism in the liver) is “low”. Further, on albumin, the “protein bound to albumin” value is given as 94-98%. The “solubility (in words)” value in series [1] is reported as “poorly water-soluble”.
